Data taken from patent publication US20130253022A1 (FOX CHASE CHEMICAL DIVERSITY CENTER, INC., priority 2010, published 2013).

Key:
[1] = test system: Hippocampal Cultures; assay: Neuroprotection from glutamate excitotoxicity, propidium iodide (cell death) assay; assay type: cell-based; settings: Rattus norvegicus; 30 μM glutamate 5 min, hippocampal cultures, 4 hour test period; read-out: NP from Glutamate PI EC50
Text: Cell cultures: All compounds are screened with dissociated hippocampal cultures derived from embryonic day 18 rats as the primary test system. With this preparation, primary neurons are used to test for toxicity as well as neuroprotection in a highly relevant experimental system to epilepsy. In brief, hippocampal tissue are obtained commercially through Brain Bits (Springfield, Ill.) and cultures prepared as previously described by Brewer (Brewer, G. J. Serum-free B27/neurobasal medium supports differentiated growth of neurons from the striatum, substantia nigra, septum, cerebral cortex, cerebellum and dentate gyms, J. Neurosci. Res. 1995, 42, 674-683). The hippocampal neurons are platted at low density (10,000 cell/well) in a 96-well format and maintained in serum-free medium consisting of Neurobasal Medium supplemented with B27 and GlutaMAX (Gibco). Pre-coated poly-L-lysine coated plates are used because of the preferential adherence and survival of hippocampal neurons on this matrix support.
Potent neuroprotection is the distinguishing characteristic that separates this program's anticonvulsants from all other commercial drugs for epilepsy. The experimental details and the rationale for the implemented assays are essential in differentiating these compounds from that of others. The central objective of all neuroprotective assays was their relevancy to excitotoxicity and oxidative stress related to epilepsy. Both the amount of glutamate and hydrogen peroxide used in the assays, as well as the time of treatment and duration of the experiment, were designed to be relevant to epilepsy. Further, all time parameters employed in these studies were empirically determined to be within the limits of reversible toxic events, yet using amounts of glutamate and hydrogen peroxide that were relevant to the disease. In regard to glutamate toxicity, a critical feature was the duration of treatment of the hippocampal neurons. The rational for using a short 5 min treatment with glutamate was based on the observation of Randall and Thayer (Randall, R. D.; Thayer, S. A. Glutamate-induced calcium transient triggers calcium overload and neurotoxicity in rat hippocampal neurons, J. Neurosci. 1992, 12, 1882-1895). […] The rationale is that this intense burst of glutamate and resulting calcium overload is relevant to seizures and therefore was important data to capture in the screening assay. The amount of glutamate (30 μM) employed in our screening was based on the basal levels of glutamate observed in microdialysis measurements of hippocampus from epileptogenic patients (Cavus et al. Decreased hippocampal volume on MRI is associated with increased extracellular glutamate in epilepsy patients, Epilepsia, 2008, 49, 1358-1366). In regard to hydrogen peroxide, the amount employed (10 μM) was detected in the hippocampus of rats after kainate-induced status epilepticus (Jarrett et. al., Mitochondrial DNA damage and impaired base excision repair during epileptogenesis, Neurobiol. Dis. 2008, 30, 130-138). To produce neural damage and death with these amounts of glutamate and hydrogen peroxide, the cultures were changed to a medium with significant depletion of antioxidant components in the defined medium supplement B-27 just prior to treatment with the compounds. This was performed to obtain a significant and reproducible toxic signal in the hippocampal neurons and because loss of antioxidant control may be a component of epileptogenesis (Waldbaum and Patel, Mitochondria, oxidative stress and temporal lobe epilepsy, Epilepsy Res. 2010 88, 23-45; Wu et al., Mitochondrial DNA mutation-elicited oxidative stress, oxidative damage, and altered gene expression in cultured cells of patients with MERRF syndrome, Mol. Neurobiol. 2010, 41, 256-266). Neuroprotection studies with hydrogen peroxide were conducted with cultures that were between day 12 and day 18. Studies of neuroprotection glutamate were conducted between day 19 and day 22. […]

[2] = test system: 6-Hz psychomotor seizure; assay: 6 Hz psychomotor seizure test, mouse; assay type: in vivo, mice; settings: ip
Protocol: Methods to measure anticonvulsant activity: All tests were conducted by the Anticonvulsant Screening Program (ASP) of the National Institute of Neurological Disease and Stroke at the National Institutes of Health. The 6 Hz Seizure Test: Compounds were further tested in the 6-Hz psychomotor seizure model. (Barton et al. Pharmacological characterization of the 6 Hz psychomotor seizure model of partial epilepsy. Epilepsy Res. 2001, 47, 217-227). This model is used to detect […] that may be useful for the treatment of therapy-resistant partial seizures. For this test, an alternative electrical stimulation paradigm is used with a low frequency (6 Hz), long duration (3 seconds) corneal stimulation. The seizure evoked by this low frequency stimulation is characterized by immobility, forelimb clonus, Straub tail and facial automatisms. Mice are tested from 15 min to 4 hours following an intraperitoneal dose of 100 mg/kg. Abolition of the clonic seizures indicates the ability of a compound to prevent partial or psychomotor seizures.

[3] = test system: pentylenetetrazol-induced clonic seizures; assay: Subcutaneous pentylenetetrazol seizure test (scPTZ), mouse; assay type: in vivo, Carworth Farms No. 1 mice; settings: pentylenetetrazol 85 mg/kg s.c., test compound intraperitoneally, read-out: Mouse PTZ ED50, s.c.
Protocol: Methods to measure anticonvulsant activity: All tests were conducted by the Anticonvulsant Screening Program (ASP) of the National Institute of Neurological Disease and Stroke at the National Institutes of Health. The subcutaneous pentylenetetrazol (metrazol) seizure test (scPTZ). This model primarily identifies compounds that raise seizure threshold. The behavioral seizure produced is not typical of absence epilepsy but clonic in nature. With some minor exceptions, the pharmacological profile of the scPTZ seizure model is consistent with the human condition. The scPTZ test utilizes a dose of pentylenetetrazol (85 mg/kg in Carworth Farms No. 1 mice and 70 mg/kg in Sprague-Dawley rats). This produces clonic seizures lasting for a period of at least five seconds in 97 percent of animals tested. At the anticipated time of testing the convulsant is administered subcutaneously. The test compound is administered intraperitoneally in mice and orally in rats. Animals are observed over a 30 minute period. Absence of clonic spasms in the observed time period indicates a compound's ability to abolish the effect of pentylenetetrazol on seizure threshold (Swinyard E A. Laboratory evaluation of antiepileptic drugs: review of laboratory methods. Epilepsia, 1969, 10, 107-119).

SMILES | EC50 [1] | ED50 [2] | ED50 [3]
NS(=O)(=O)NCC(F)(F)c1ccccc1F [Example 1, 2,2-Difluoro-2-(2-fluorophenyl)-ethyl-1-sulfamide] | 1 nM | 18 mg/kg | 108 mg/kg
NS(=O)(=O)NCC(F)(F)c1ccccc1Cl [Example 2, 2,2-Difluoro-2-(2-chlorophenyl)-ethyl-1-sulfamide] | 1 nM | 28 mg/kg | 98 mg/kg
